{"source": "patent US8575214B2", "about": "“MGlu 2/3 agonists” (Eli Lilly and Company, priority 2012, dated 2013)", "key": {"Male Sprague Dawley rats": {"system": "Male Sprague Dawley rats", "assay": "Reversal of colorectal distension-induced pain behaviors", "assay_type": "in vivo, rat", "conditions": "90 minutes post dosing, mean ± SEM", "protocol": "Visceral pain in rats can be induced by distension of the colorectal cavity and pain monitored by accessing the reflex contraction of abdominal muscles. Measurement of abdominal muscle reflex contractions with pain caused by colorectal distension in the rat is performed substantially as described by Fioramonti et al. Neurogastroenterology and Motility (2003) 15, 363-369 and Urban et al. J. of Pharmacology and Exp. Ther. (1999) 290, 207-213. Male Sprague Dawley rats are surgically implanted with electromyographic (EMG) electrodes in the oblique abdominal muscle and allowed to recover for one week, during which animals are acclimated to handling and partial restraint to minimize effects of stress. Baseline EMG measurements are collected and recorded after the insertion into the rectum (8 cm) of a lubricated latex balloon attached to a pressure monitor/regulator to step the pressure between 20, 40, and 60 mm Hg for a 20 second duration with a 3 minute resting period between trials. A set of three exposures at each pressure is recorded before stepping the pressure up to the next level. Data are collected as the area under the curve for EMG reading (volts per second) during the pressure stimulations, and averaged over the three trials. A test compound (prodrug) is orally dosed within a range of 1.5 to 17 mg/kg 90 minutes prior to the beginning of the colorectal distension. Statistical significance is defined as a p value <0.05 in an analysis of covariance followed by a Dunnett's post hoc test. Table 3 below provides the statistically significant results for Example 10 run substantially as above."}, "rats [1]": {"system": "rats", "assay": "Reversal of CFA-induced mechanical hyperalgesia (Randall Sellito test)", "assay_type": "in vivo, rat", "conditions": "mean ± SEM, p<0.05 vs vehicle", "protocol": "Induction of local inflammation in the rat hind paw will cause a persistent mechanical hyperalgesia that can be measured by determining the threshold to pressure stimuli to give a painful response. The method for complete Freund's adjuvant (CFA) induced mechanical hyperalgesia in rats is largely described in Iadarola et al. Brain Res. (1988) 455, 205-212. Rats are placed under isoflurane anesthesia while the right paw is injected with 50 μl of CFA (Sigma C5881, 1 mg/ml mycobacterium extract in 85% paraffin oil, 15% mannide monooleate) intraplantar. Animals are allowed to recover in soft bedding cages and mechanical hyperalgesia changes measured 24 hours post-CFA injection. Mechanical hyperalgesia (Randall Sellito Test) is determined by gently restraining the rat and placing the paw between the plinth and pusher (Ugo Basile Analgesy-meter). The gram force when the animal withdraws the paw is recorded.\nRats are tested for baseline response prior to CFA injection. Post-CFA response is tested the next morning (about 24 hours post injection of CFA). Rats are randomized based on post-CFA response with any rat showing a score of >150 grams excluded from further testing. A test compound (prodrug) is orally dosed within a range of 1.5 to 15 mg/kg and mechanical threshold for paw withdrawal is measured at 1 and 2 hours post dosing. Statistical significance is defined as a p value <0.05 in an analysis of covariance followed by a Dunnett's post hoc test for each time point. Table 2 below provides the statistically significant results for Example 10 run substantially as above."}, "rats [2]": {"system": "rats", "assay": "Reversal of L5/L6 nerve ligation induced tactile allodynia", "assay_type": "in vivo, rat", "conditions": "15 mg/kg orally, n=8, ±SEM", "protocol": "Unilateral ligation of nerves innervating the hind leg region will result in a chronic persistent pain manifested as tactile allodynia in rats. L5/L6 nerve ligation is performed (Kim et al. Pain (1992) 50, 355-363). Neuropathic injury is produced by tightly ligating the left L5 and L6 spinal nerves under gaseous anesthesia with a mixture of isoflurane (3% for induction and 2% for maintenance) and oxygen. After a minimum of 14 days after surgery, tactile allodynia is evaluated by measuring tactile sensitivity of the injured paw to von Frey filaments with incremental bending forces (0.3 to 15 g) (Chaplan et al. J. of Neuroscience Methods (1994) 53, 55-63). […] Baseline values are determined immediately prior to assessment of test compound. A test compound (prodrug) is orally dosed at 15 mg/kg and the tactile threshold for paw withdrawal is measured at 1, 2 and 4 hours post dosing. Data are expressed as response threshold in grams (g) and values are with standard errors of means (±SE mean) for each time point. Data are analyzed using an analysis of variance followed by a Dunnett's post hoc analysis and represent absolute change in pain threshold (Cmax=maximum Response Baseline) and expressed as Mean [log (maximum response)−log predose score)] (g)."}, "male Sprague-Dawley rats": {"system": "male Sprague-Dawley rats", "assay": "Reversal of persistent pain induced by formalin injection", "assay_type": "in vivo", "conditions": "po, 2 h, dosed two hours prior to intraplantar formalin, rat"}}, "data": [{"compound": "C[C@H](N)C(=O)N[C@@]1(C(=O)O)CC2(CC2)[C@H]2[C@H](C(=O)O)[C@H]21", "note": "[Example 10, (1S,2S,5R,6S)-2-[[(2S)-2-Aminopropanoyl]amino]spiro[bicyclo[3.1.0]hexane-4,1′-cyclopropane]-2,6-dicarboxylic acid dihydrate]", "values": [{"measurement": "AUC of EMG reading for abdominal muscle with 60 mmHg colorectal pressure", "setting": "Male Sprague Dawley rats; 1.5 mg/kg po, pre-dosing baseline 853 ± 142, vehicle 849 ± 65", "value": "618 ± 92", "unit": "μV/sec"}, {"measurement": "AUC of EMG reading for abdominal muscle with 60 mmHg colorectal pressure", "setting": "Male Sprague Dawley rats; 4.5 mg/kg po, pre-dosing baseline 887 ± 152, p<0.05 vs vehicle", "value": "531 ± 99", "unit": "μV/sec"}, {"measurement": "AUC of EMG reading for abdominal muscle with 60 mmHg colorectal pressure", "setting": "Male Sprague Dawley rats; 17 mg/kg po, pre-dosing baseline 773 ± 134, p<0.05 vs vehicle", "value": "266 ± 87", "unit": "μV/sec"}, {"measurement": "Paw withdrawal Threshold", "setting": "rats [1]; 1.5 mg/kg po, one hour post dosing, group pre CFA 243 ± 5, 24 hours post CFA 113 ± 8", "value": "180 ± 14 grams, force"}, {"measurement": "Paw withdrawal Threshold", "setting": "rats [1]; 1.5 mg/kg po, two hours post dosing, group pre CFA 243 ± 5, 24 hours post CFA 113 ± 8", "value": "186 ± 19 grams, force"}, {"measurement": "Paw withdrawal Threshold", "setting": "rats [1]; 4.5 mg/kg po, one hour post dosing, group pre CFA 221 ± 10, 24 hours post CFA 114 ± 9", "value": "153 ± 20 grams, force"}, {"measurement": "Paw withdrawal Threshold", "setting": "rats [1]; 4.5 mg/kg po, two hours post dosing, group pre CFA 221 ± 10, 24 hours post CFA 114 ± 9", "value": "221 ± 20 grams, force"}, {"measurement": "Paw withdrawal Threshold", "setting": "rats [1]; 15 mg/kg po, one hour post dosing, group pre CFA 244 ± 4, 24 hours post CFA 108 ± 12, cut-off 250 grams", "value": "250 ± 0 grams, force"}, {"measurement": "Paw withdrawal Threshold", "setting": "rats [1]; 15 mg/kg po, two hours post dosing, group pre CFA 244 ± 4, 24 hours post CFA 108 ± 12", "value": "232 ± 15 grams, force"}, {"measurement": "mechanical threshold (von Frey, paw withdrawal)", "setting": "rats [2]; four hours post dosing, vehicle 2.35±0.62", "value": "8.63 ± 1.98", "unit": "g"}, {"measurement": "mechanical threshold (von Frey, paw withdrawal)", "setting": "rats [2]; one hour post dosing, vehicle 1.50±0.60", "value": "9.06 ± 2.26", "unit": "g"}, {"measurement": "mechanical threshold (von Frey, paw withdrawal)", "setting": "rats [2]; two hours post dosing, vehicle 1.34±0.75", "value": "12.31 ± 1.86", "unit": "g"}, {"measurement": "ED50", "setting": "male Sprague-Dawley rats", "value": 4.8, "unit": "mg/kg"}]}]}
